Experimental findings from ChEMBL document CHEMBL1201862, “PubChem BioAssay data set” (2004) are described below.

“And” between values parts separate entries of the source, which are not always exact repeats. Equal values may be shown once.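 48-hour exposure; five concentrations; linearly interpolated endpoints. GI50: concentration for 50% inhibition of growth.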 The source made the active and inactive calls. Rule as the data show it: active = GI50 up to about 1.1 µM and inactive = higher. Where a SMILES comes first, the peptide text is derived from it. The star is where a group is joined. Boc = CC(C)(C)OC(=O)* A value given as a limit tells only on which side of the number the result lay.

Among the test systems are ACHN; BT-549; HCC 2998; HCT-116; HOP-62; LOX IMVI; MDA-MB-231; MDA-MB-435; NCI-H460; OVCAR-3; OVCAR-4; OVCAR-5; RPMI-8226; SF-268; SF-295; SK-MEL-5; SNB-19; T47D; UO-31; K562.
Holding throughout (test): inhibition of tumour cell growth, NCI panel, 48 h

For `Cc1ccc(CC(Cc2ccc(C)cc2C(=O)O)C(=O)O)cc1` (stereo unspecified), the GI50 in the experiment on ACHN, with BT-549, in the experiment on HCC 2998, in the experiment with HCT-116, with HOP-62 and in the experiment on LOX IMVI was > 100 µM (inactive) in each case. The GI50 in the experiment with MDA-MB-231, with MDA-MB-435, with NCI-H460, with OVCAR-3, in the experiment on OVCAR-4 and with OVCAR-5 was > 100 µM (inactive) in each case. The GI50 in the experiment with RPMI-8226, with SF-268, with SF-295, in the experiment on SK-MEL-5, in the experiment on SNB-19 and in the experiment on T47D was > 100 µM (inactive) throughout. Moreover, in the experiment on UO-31, the GI50 was > 100 µM (inactive).
As for `COC(=O)C(C)NC(=O)C(CCSC)NC(=O)C(Cc1ccccc1)NC(=O)OC(C)(C)C` (stereo not drawn) (Boc-Phe-Met-Ala-OMe; configuration not given here), the GI50 in the experiment on ACHN, in the experiment on BT-549, with HCC 2998, in the experiment with HCT-116, in the experiment on HOP-62 and in the experiment on LOX IMVI was > 100 µM (inactive) in each case. For the same molecule, the GI50 with MDA-MB-231, in the experiment with MDA-MB-435, in the experiment with NCI-H460, in the experiment with OVCAR-3, with OVCAR-4 and with OVCAR-5 was > 100 µM (inactive) each time. Also, the GI50 in the experiment with RPMI-8226, with SF-268, with SF-295, with SK-MEL-5, in the experiment with SNB-19 and in the experiment on T47D was > 100 µM (inactive) throughout. The GI50 with UO-31 is > 100 µM (inactive).
As to `O=c1cc(O)c2c(O)cc(O)cc2o1`, the GI50 with ACHN, with BT-549, in the experiment on HCC 2998, in the experiment on HCT-116, in the experiment with HOP-62 and with K562 was > 100 µM (inactive) in each case. The GI50 in the experiment with LOX IMVI, with MDA-MB-231, in the experiment with MDA-MB-435, in the experiment with NCI-H460, in the experiment on OVCAR-3 and in the experiment with OVCAR-4 was > 100 µM (inactive) in each case. Also, the GI50 in the experiment with OVCAR-5, in the experiment with RPMI-8226, in the experiment with SF-268, in the experiment on SF-295, with SK-MEL-5 and with SNB-19 was > 100 µM (inactive) each time. Besides, the GI50 with T47D is > 100 µM (inactive).
In the case of `CCOP(=O)(OCC)/C(C#N)=C/c1ccnc2ccccc12`, the GI50 is 43.6 µM (inactive) in the experiment with ACHN; 23.9 µM (inactive) with BT-549; > 100 µM (inactive) in the experiment on HCC 2998; 3.27 µM (inactive) in the experiment on HCT-116; 40.8 µM (inactive) in the experiment on HOP-62; 31.6 µM (inactive) with LOX IMVI. The GI50 in the experiment with MDA-MB-231 is 24.9 µM (inactive); in the experiment on MDA-MB-435, 16.4 µM (inactive); in the experiment with NCI-H460 it was 43.6 µM (inactive); in the experiment on OVCAR-3, 20.3 µM (inactive); in the experiment with OVCAR-4, 32.6 µM (inactive); in the experiment on OVCAR-5, 22.5 µM (inactive). The GI50 in the experiment on RPMI-8226 was 44.7 µM (inactive); in the experiment with SF-268, 18.4 µM (inactive); in the experiment with SF-295, 24.2 µM (inactive); in the experiment on SK-MEL-5 it was 23.3 µM (inactive); with SNB-19, 21.4 µM (inactive); in the experiment with T47D, 55 µM (inactive). The GI50 in the experiment with UO-31 was < 0.01 µM (active).
For the molecule `N=c1c2c(=S)n(-c3ccccc3)c(=S)n(-c3ccccc3)c2nc(SCCN2CCCC2)n1-c1ccccc1`, the GI50 with ACHN was 1.77 µM (inactive); in the experiment on BT-549, 1.92 µM (inactive); with HCC 2998 it was 1.31 µM (inactive); in the experiment on HCT-116 it was 2.09 µM (inactive); with HOP-62 it was 3.4 µM (inactive); with K562, 0.762 µM (active). Further, the GI50 was 1.63 µM (inactive) in the experiment on LOX IMVI; 1.78 µM (inactive) in the experiment with MDA-MB-231; 1.87 µM (inactive) with MDA-MB-435; 1.72 µM (inactive) in the experiment with NCI-H460; 1.68 µM (inactive) with OVCAR-3; 3 µM (inactive) with OVCAR-4. For the same molecule, the GI50 was 17.5 µM (inactive) in the experiment on OVCAR-5; 0.341 µM (active) with RPMI-8226; 2.7 µM (inactive) with SF-268; 15.2 µM (inactive) in the experiment with SF-295; 3.27 µM (inactive) in the experiment on SK-MEL-5; 15.2 µM (inactive) in the experiment on SNB-19. Moreover, the GI50 in the experiment on T47D was 2.8 µM (inactive).
With `CC1=NN(c2nc(N)nc(CC#N)n2)C(C)(C)C1`, the GI50 in the experiment on ACHN, in the experiment with BT-549, in the experiment with HCC 2998, in the experiment with HCT-116, in the experiment on HOP-62 and with K562 was > 100 µM (inactive) in each case. Further, the GI50 in the experiment on LOX IMVI, with MDA-MB-231, with MDA-MB-435, with NCI-H460, with OVCAR-4 and in the experiment on RPMI-8226 was > 100 µM (inactive) in each case. In addition, the GI50 in the experiment with SF-268, in the experiment on SF-295, with SK-MEL-5, in the experiment on SNB-19, with T47D and in the experiment on UO-31 was > 100 µM (inactive) in each case.
For the molecule `CC(=O)OC1COC(n2c(N)c(C#N)c(-c3ccccc3)c(C#N)c2=S)C(OC(C)=O)C1OC(C)=O` (stereo unspecified), the GI50 in the experiment on ACHN was 45.7 µM (inactive) and 71.4 µM (inactive); in the experiment on BT-549 it was 25.6 µM (inactive) and 22.8 µM (inactive); with HCC 2998, 25.6 µM (inactive) and 27.4 µM (inactive); in the experiment on HCT-116, 45.5 µM (inactive) and 37.8 µM (inactive); in the experiment with HOP-62 it was > 100 µM (inactive); with LOX IMVI, 25.2 µM (inactive) and 27.6 µM (inactive). Moreover, the GI50 in the experiment with MDA-MB-231 is 50.9 µM (inactive) and 56.6 µM (inactive); in the experiment on MDA-MB-435, 27.8 µM (inactive) and 24.3 µM (inactive); in the experiment on NCI-H460, 46.8 µM (inactive) and 65.9 µM (inactive); in the experiment on OVCAR-3, 28.9 µM (inactive) and 33.2 µM (inactive); in the experiment with OVCAR-4, 41 µM (inactive) and 38.7 µM (inactive); in the experiment on OVCAR-5, 46.5 µM (inactive) and 89.1 µM (inactive). Also, the GI50 with RPMI-8226 was 24.5 µM (inactive) and 28.6 µM (inactive); with SF-268, 36 µM (inactive); in the experiment on SF-295, > 100 µM (inactive); in the experiment on SK-MEL-5, 37.9 µM (inactive) and 30.3 µM (inactive); in the experiment with SNB-19 it was 75.9 µM (inactive); with T47D it was 33 µM (inactive) and 28.8 µM (inactive). Besides, the GI50 with UO-31 was 23.1 µM (inactive) and 36.5 µM (inactive).
As to `COC1CC(OC2C(C)OC(OC3C(C)OC(OC4C(C)OC(O[C@H]5CC[C@@]6(C)C(=CC[C@]7(O)[C@@H]6C[C@@H](OC(=O)/C=C(\C)C(C)C)[C@@]6(C)[C@]7(O)CC[C@@]6(O)C(C)=O)C5)CC4OC)CC3OC)CC2OC)OC(C)C1O` (stereo partly specified), the GI50 in the experiment on ACHN is > 12.5 µM (inactive); with BT-549, > 12.5 µM (inactive); in the experiment on HCC 2998 it was > 12.5 µM (inactive); in the experiment with HCT-116, > 12.5 µM (inactive); in the experiment on HOP-62 it was > 12.5 µM (inactive); in the experiment with K562 it was 10.9 µM (inactive). Moreover, the GI50 in the experiment on LOX IMVI was > 12.5 µM (inactive); in the experiment with MDA-MB-231 it was 11.9 µM (inactive); with MDA-MB-435, > 12.5 µM (inactive); with OVCAR-3, > 12.5 µM (inactive); in the experiment with OVCAR-4, > 12.5 µM (inactive); in the experiment on OVCAR-5, > 12.5 µM (inactive). Besides, the GI50 with RPMI-8226 is 4.02 µM (inactive); in the experiment on SF-268, > 12.5 µM (inactive); with SF-295, > 12.5 µM (inactive); with SK-MEL-5, 11.2 µM (inactive); in the experiment on SNB-19, > 12.5 µM (inactive); with T47D it was > 12.5 µM (inactive). Besides, the GI50 in the experiment with UO-31 is 4.85 µM (inactive).
For `CCC1OC2C(CC=C(C)C)=C3OC(C)(O)C(C)(CC)C(O)C3=C3OC(=O)C=C1C32` (stereo unspecified), the GI50 in the experiment with ACHN was 38.3 µM (inactive); with BT-549, 23 µM (inactive); with HCC 2998 it was 27 µM (inactive); with HCT-116, 26.6 µM (inactive); in the experiment on K562 it was 10.8 µM (inactive); in the experiment on LOX IMVI it was 12.4 µM (inactive). The GI50 in the experiment on MDA-MB-231 is 19 µM (inactive); in the experiment with MDA-MB-435, 67 µM (inactive); in the experiment on NCI-H460 it was 21.4 µM (inactive); in the experiment on OVCAR-4, 36.2 µM (inactive); in the experiment on OVCAR-5 it was 74.8 µM (inactive); in the experiment on RPMI-8226, 31.6 µM (inactive). In addition, the GI50 in the experiment with SF-268 is 27 µM (inactive); in the experiment on SF-295, 45.8 µM (inactive); with SK-MEL-5 it was 28.4 µM (inactive); with SNB-19 it was 54.6 µM (inactive); in the experiment with T47D, 29 µM (inactive); with UO-31, 25.4 µM (inactive).
Turning to `CC(=O)c1c(=O)n(-c2ccc(C)cc2)c(O)c2c(N)n[nH]c12`, the GI50 in the experiment on BT-549, with HCC 2998, in the experiment on HCT-116, in the experiment with K562, in the experiment with LOX IMVI and in the experiment with MDA-MB-231 was > 100 µM (inactive) throughout. Besides, the GI50 in the experiment with MDA-MB-435, in the experiment with NCI-H460, in the experiment on OVCAR-3, in the experiment with OVCAR-4, in the experiment with OVCAR-5 and in the experiment on RPMI-8226 was > 100 µM (inactive) each time. The GI50 in the experiment on SF-268 is > 100 µM (inactive); in the experiment on SK-MEL-5, > 100 µM (inactive); in the experiment on SNB-19, > 100 µM (inactive); in the experiment with T47D it was > 100 µM (inactive); in the experiment with UO-31, 60 µM (inactive).
